# Counter-ions that a name gives are not always drawn. Like-named read-outs stand apart in the source and are kept apart here.
# Tests used:
# [1] = Pharmacokinetics and bioavailability in rats; assay type: in vivo; conditions: SD rats; for bioavailability / BA(% Oral bioavailability): calculated according to AUC data, PO vs IV; for bioavailability: read-out: BA(% Oral bioavailability)
# Procedure: Pharmacokinetics and bioavailability in rats. […] The blood samples were collected at the proper time points after administration, add heparin-anticoagulant, and the supernatants of the blood samples were collected (3000 rpm, 10 min) and stored at -20° C. for HPLC-MS analysis. After protein-precipitation procedure with acetonitrile, supernatants were collected after 3000 rpm, 10 min for analysis with HPLC-MS. The data were analyzed with software DAS2.0 to separately acquire the parameters of compartment models and non-compartment models. The bioavailability was calculated according to AUC data.
# [2] = system: MOLT-4 (Human acute lymphoblastic leukemia cell line); assay: tumor cell proliferation, MTT or CCK8 assay, 72 h incubation; assay type: cell-based; conditions: MOLT-4, 72 h, read-out: IC50 on tumor cell proliferation, MOLT-4
# Procedure: (§1) The heterocyclic alkynyl benzene compounds at different concentrations (1×10^−10˜1×10^−5M) were incubated for 72 hours individually applied to 6 cell lines K562 (human CML cell line), MOLT-4 (human ALL cell line), U937 (human CML cell line), MEG-01 (human CML cell line), L78 (human lung cancer cell line), Ba/F3-T315I (mice Pro-B cells transformed with Bcr-AblT315I and STI57′-resistant cell line). After incubation for 72 hrs, cell proliferation was then determined by MTT assay or CCK8 assay, and 4 hr incubation is further conducted, the absorbance at 570 nm (CCK8, 450 nm, 650 nm) was measured using enzyme Microplate Reader. […] Based on the inhibition potency of the heterocyclic alkynyl benzene compounds on the cell proliferation, IC50 values were calculated and summarized in the Table 1 and Table 2 (The compounds used were synthesized by Examples 1-40, and the compounds are marked with Drug No. series in Table 1).
# [3] = system: K562 (human chronic myelogenous leukemia cell line); assay: as above; assay type: cell-based; conditions: K562, 72 h, read-out: IC50 on tumor cell proliferation, K562
# Procedure: as §1
# [4] = system: K562R cells (imatinib-resistant cell line); assay: as above; assay type: cell-based; conditions: Homo sapiens, K-562R, read-out: IC50 on tumor cell proliferation, K562R cells
# [5] = target: BAF3-T315I cells (Ba/F3 cell line stably expressing BCR/ABL T315I) (Homo sapiens, UniProt P00519, T315I, cells depend on it); assay: as above; assay type: cell-based, mice
# Procedure: The heterocyclic alkynyl benzene compounds at different concentrations (1×10^−10˜1×10^−5M) were incubated for 72 hours individually applied to 6 cell lines K562 (human CML cell line), MOLT-4 (human ALL cell line), U937 (human CML cell line), MEG-01 (human CML cell line), L78 (human lung cancer cell line), Ba/F3-T315I (mice Pro-B cells transformed with Bcr-AblT315I and STI57′-resistant cell line). After incubation for 72 hrs, cell proliferation was then determined by MTT assay or CCK8 assay, and 4 hr incubation is further conducted, the absorbance at 570 nm (CCK8, 450 nm, 650 nm) was measured using enzyme Microplate Reader.
# [6] = both sexes, Sprague-Dawley, rat, plasma, iv, 10 mg/kg, IV 10 mg/kg
# [7] = both sexes, Sprague-Dawley, rat, plasma, po, 20 mg/kg, PO 20 mg/kg
# [8] = both sexes, Sprague-Dawley, rat, plasma, po
# [9] = both sexes, Sprague-Dawley, rat, plasma, iv, 2.5 mg/kg, IV 2.5 mg/kg
# [10] = both sexes, Sprague-Dawley, rat, plasma, po, 25 mg/kg, PO 25 mg/kg
# [11] = both sexes, Sprague-Dawley, rat, plasma, po, 25 mg/kg, PO 25 mg/kg, read-out: Cmax
# [12] = both sexes, Sprague-Dawley, rat, plasma, po, 25 mg/kg, PO 25 mg/kg, read-out: Tmax
# [13] = both sexes, Sprague-Dawley, rat, plasma, iv, 5 mg/kg, IV 5 mg/kg
# [14] = both sexes, Sprague-Dawley, rat, plasma, iv, 5 mg/kg, IV 5 mg/kg, read-out: Cmax
# [15] = both sexes, Sprague-Dawley, rat, plasma, iv, 5 mg/kg, IV 5 mg/kg, read-out: Tmax
# [16] = both sexes, Sprague-Dawley, rat, plasma, iv, 25 mg/kg, IV 25 mg/kg
# [17] = both sexes, Sprague-Dawley, rat, plasma, po, 5 mg/kg, PO 5 mg/kg
# [18] = Ba/F3 expressing BCR/ABL T315I, 72 h, Table 1; read-out: IC50 on tumor cell proliferation, BAF3-T315I cells
# [19] = IV 5 mg/kg, dihydrochloride, 5 mg/kg
# [20] = PO 25 mg/kg, dihydrochloride, 25 mg/kg
smiles,measurement,setting,value
"Cc1cn(-c2cc(NC(=O)c3ccc(C)c(C#Cc4cnc(NC(C)C)nc4)c3)cc(C(F)(F)F)c2)cn1 [D752 mesylate salt, 3-(2-(2-(isopropylamino)pyrimidin-5-yl)ethynyl)-4-methyl-N-(3-(4-methyl-1H-imidazol-1-yl)-5-(trifluoromethyl)phenyl)benzamide]",AUC(0-inf),[1]; [6],305000 ng·h/mL
same,half-life,[1]; [6],43.9 h
same,Cmax,"[1]; both sexes, Sprague-Dawley, rat, plasma, iv, 10 mg/kg, IV 10 mg/kg, read-out: Cmax",19600 ng/mL
same,Tmax,"[1]; both sexes, Sprague-Dawley, rat, plasma, iv, 10 mg/kg, IV 10 mg/kg, read-out: Tmax",0.033 h
same,AUC(0-inf),[1]; [7],70400 ng·h/mL
same,half-life,[1]; [7],7.55 h
same,Cmax,"[1]; both sexes, Sprague-Dawley, rat, plasma, po, 20 mg/kg, PO 20 mg/kg, read-out: Cmax",1900 ng/mL
same,Tmax,"[1]; both sexes, Sprague-Dawley, rat, plasma, po, 20 mg/kg, PO 20 mg/kg, read-out: Tmax",20 h
same,bioavailability,[1]; [8],11.5%
"CCNc1ncc(C#Cc2cc(C(=O)Nc3cc(-n4cnc(C)c4)cc(C(F)(F)F)c3)ccc2C)cn1 [D755 hydrochloride salt, 3-(2-(2-(ethylamino)pyrimidin-5-yl)ethynyl)-4-methyl-N-(3-(4-methyl-1H-imidazol-1-yl)-5-(trifluoromethyl)phenyl)benzamide]",AUC(0-inf),[1]; [9],3740 ng·h/mL
same,half-life,[1]; [9],26.2 h
same,Cmax,"[1]; both sexes, Sprague-Dawley, rat, plasma, iv, 2.5 mg/kg, IV 2.5 mg/kg, read-out: Cmax",510 ng/mL
same,Tmax,"[1]; both sexes, Sprague-Dawley, rat, plasma, iv, 2.5 mg/kg, IV 2.5 mg/kg, read-out: Tmax",0.033 h
same,AUC(0-inf),[1]; [10],23700 ng·h/mL
same,half-life,[1]; [10],8.3 h
same,Cmax,[1]; [11],1260 ng/mL
same,Tmax,[1]; [12],6.25 h
same,bioavailability,[1]; [8],63.3%
"Cc1cn(-c2cc(NC(=O)c3ccc(C)c(C#Cc4cnc5[nH]ncc5c4)c3)cc(C(F)(F)F)c2)cn1 [D767 hydrochloride salt, 3-(2-(1H-pyrazolo[3,4-b]pyridin-5-yl)ethynyl)-4-methyl-N-(3-(4-methyl-1H-imidazol-1-yl)-5-(trifluoromethyl)phenyl)benzamide]",AUC(0-∞),"[1]; PO 25 mg/kg, 25 mg/kg",62208 ng·h/mL
same,Tmax,"[1]; PO 25 mg/kg, 25 mg/kg",7.75 h
same,BA(% Oral bioavailability),[1],19%
same,AUC(0-inf),[1]; [13],65500 ng·h/mL
same,half-life,[1]; [13],5.6 h
same,Cmax,[1]; [14],15300 ng/mL
same,Tmax,[1]; [15],0.033 h
same,half-life,[1]; [10],7.18 h
same,Cmax,[1]; [11],3620 ng/mL
"CNc1ncc(C#Cc2cc(C(=O)Nc3cc(-n4cnc(C)c4)cc(C(F)(F)F)c3)ccc2C)cn1 [D800 hydrochloride salt, 4-methyl-N-(3-(4-methyl-1H-imidazol-1-yl)-5-(trifluoromethyl)phenyl)-3-(2-(2-(methylamino)pyrimidin-5-yl)ethynyl)benzamide]",BA(% Oral bioavailability),[1],27.1%
same,AUC(0-inf),[1]; [16],48600 ng·h/mL
same,half-life,[1]; [16],7.8 h
same,Cmax,"[1]; both sexes, Sprague-Dawley, rat, plasma, iv, 25 mg/kg, IV 25 mg/kg, read-out: Cmax",3090 ng/mL
same,Tmax,"[1]; both sexes, Sprague-Dawley, rat, plasma, iv, 25 mg/kg, IV 25 mg/kg, read-out: Tmax",2 h
same,AUC(0-inf),[1]; [17],35800 ng·h/mL
same,half-life,[1]; [17],7.5 h
same,Cmax,"[1]; both sexes, Sprague-Dawley, rat, plasma, po, 5 mg/kg, PO 5 mg/kg, read-out: Cmax",11000 ng/mL
same,Tmax,"[1]; both sexes, Sprague-Dawley, rat, plasma, po, 5 mg/kg, PO 5 mg/kg, read-out: Tmax",0.033 h
"Cc1ccc(C(=O)Nc2cccc(C(F)(F)F)c2)cc1C#Cc1cnc2[nH]ncc2c1 [D821, 3-(2-(1H-pyrazolo[3,4-b]pyridin-5-yl)ethynyl)-4-methyl-N-(3-(trifluoromethyl)phenyl)benzamide]",IC50,"[2]; MTT or CCK8, nM",> 100 nM
same,IC50,"[3]; MTT or CCK8, nM",0.724 nM
same,IC50,[4]; imatinib-resistant K562R,58 nM
same,GI50,[5]; [18],19.5 nM
"Cc1ccc(C(=O)Nc2ccc(CN3CCN(C)CC3)c(C(F)(F)F)c2)cc1C#Cc1cnc2[nH]ncc2c1 [D824 hydrochloride salt, 3-(2-(1H-pyrazolo[3,4-b]pyridin-5-yl)ethynyl)-4-methyl-N-(4-((4-methylpiperazin-1-yl)methyl)-3-(trifluoromethyl)phenyl)benzamide dihydrochloride]",AUC(0-∞),[1]; [19],2922.411 ng·h/mL
same,Cmax,[1]; [19],1375.625 ng/mL
same,T1/2,[1]; [19],5.557 h
same,Tmax,[1]; [19],0.067 h
same,AUC(0-∞),[1]; [20],7108.253 ng·h/mL
same,Cmax,[1]; [20],390.5 ng/mL
same,T1/2,[1]; [20],10.55 h
same,BA(% Oral bioavailability),[1]; dihydrochloride,48.7%
same,Tmax,[1]; [12],6 h
"Cc1ccc(C(=O)Nc2ccc(CN3CCN(C)CC3)c(C(F)(F)F)c2)cc1C#Cc1cnc(NC2CC2)nc1 [D825 mesylate salt, 3-(2-(2-(cyclopropylamino)pyrimidin-5-yl)ethynyl)-4-methyl-N-(4-((4-methylpiperazin-1-yl)methyl)-3-(trifluoromethyl)phenyl)benzamide trimesylate]",AUC(0-inf),[1]; [13],11800 ng·h/mL
same,half-life,[1]; [13],11.7 h
same,Cmax,[1]; [14],2330 ng/mL
same,Tmax,[1]; [15],0.033 h
same,AUC(0-inf),[1]; [10],34600 ng·h/mL
same,half-life,[1]; [10],11.5 h
same,Cmax,[1]; [11],1700 ng/mL
same,Tmax,[1]; [12],4.75 h
same,bioavailability,[1]; [8],58.5%
"Cc1cn(-c2cc(NC(=O)c3ccc(C)c(C#Cc4ccc(N)nc4)c3)cc(C(F)(F)F)c2)cn1 [D827, 3-(2-(6-aminopyridin-3-yl)ethynyl)-4-methyl-N-(3-(4-methyl-1H-imidazol-1-yl)-5-(trifluoromethyl)phenyl)benzamide]",IC50,"[2]; MTT or CCK8, nM",1850 nM
same,IC50,"[3]; MTT or CCK8, nM",2.68 nM
same,IC50,[4]; imatinib-resistant K562R,59 nM
same,GI50,[5]; [18],29.8 nM
"Cc1cn(-c2cc(NC(=O)c3ccc(C)c(C#Cc4cnc(NC5CCCCC5)nc4)c3)cc(C(F)(F)F)c2)cn1 [D828, 3-(2-(2-(cyclohexylamino)pyrimidin-5-yl)ethynyl)-4-methyl-N-(3-(4-methyl-1H-imidazol-1-yl)-5-(trifluoromethyl)phenyl)benzamide]",IC50,[2],> 100 nM
same,IC50,[3],30.9 nM
same,IC50,[4],3070 nM
same,GI50,"[5]; read-out: IC50 on tumor cell proliferation, BAF3-T315I cells; Ba/F3 expressing BCR/ABL T315I, 72 h, Table 1",2480 nM
"Cc1ccc(C(=O)Nc2cc(-n3ccnc3)cc(C(F)(F)F)c2)cc1C#Cc1cnc2[nH]ncc2c1 [D831 mesylate salt, N-(3-(1H-imidazol-1-yl)-5-(trifluoromethyl)phenyl)-3-(2-(1H-pyrazolo[3,4-b]pyridin-5-yl)ethynyl)-4-methylbenzamide]",AUC(0-inf),[1]; [13],107000 ng·h/mL
same,half-life,[1]; [13],5.24 h
same,Cmax,[1]; [14],64200 ng/mL
same,Tmax,[1]; [15],0.033 h
same,AUC(0-inf),[1]; [10],73900 ng·h/mL
same,half-life,[1]; [10],4.66 h
same,Cmax,[1]; [11],9520 ng/mL
same,Tmax,[1]; [12],2.25 h
same,bioavailability,[1]; [8],13.8%
"Cc1ncn(-c2cc(NC(=O)c3ccc(C)c(C#Cc4cnc5[nH]ncc5c4)c3)cc(C(F)(F)F)c2)n1 [D835 hydrochloride salt, 3-(2-(1H-pyrazolo[3,4-b]pyridin-5-yl)ethynyl)-4-methyl-N-(3-(3-methyl-1H-1,2,4-triazol-1-yl)-5-(trifluoromethyl)phenyl)benzamide]",AUC(0-inf),[1]; [13],8540 ng·h/mL
same,half-life,[1]; [13],16.9 h
same,Cmax,[1]; [14],976 ng/mL
same,Tmax,[1]; [15],0.033 h
same,AUC(0-inf),[1]; [10],3470 ng·h/mL
same,half-life,[1]; [10],8.81 h
same,Cmax,[1]; [11],233 ng/mL
same,Tmax,[1]; [12],4 h
same,bioavailability,[1]; [8],8.1%

# Source: patent US8846671B2, “Heterocyclic alkynyl benzene compounds and medical compositions and uses thereof” (Guangzhou Institute of Biomedicine and Health, Chinese …, priority 2010, dated 2014)
